Reference: PMC11926788, “Effect of SSR504734, a Selective Glycine Transporter Type 1 Inhibitor, on Seizure Thresholds, Neurotransmitter Levels, and Inflammatory Markers in Mice” (ACS Chemical Neuroscience, 2025)
Where “and” joins values, the source holds several entries; their conditions need not be identical. Equal values may be shown once. Where a name gives a salt, the structure may show the parent alone.

Experiments:
[1] = Chimney test (motor coordination); type: in vivo, mice
Description: The impact of SSR504734 on motor coordination in mice was evaluated by using the chimney test. Each animal was individually placed inside a transparent Plexiglas tube with an inner diameter of 3 cm and a length of 30 cm. The tube was horizontally positioned on a table and shifted vertically once the mouse reached the opposite end. Within a 60 s time frame, the mouse was required to climb backward to escape from the tube. In order to minimize the number of animals used, a chimney test was carried out shortly before seizure tests.
Table S2. Time-course effect of SSR5504734 on neuromuscular strength and motor […]
Group Neuromuscular strength Impairment of motor
SSR504734 was dissolved in normal saline and injected i.p. at the dose of 30 mg/kg. Control animals received saline. The data are expressed as the mean ± SD of grip strengths measured in millinewtons per gram of mouse body weight (mN/g) from the grip-strength test assessing […]
coordination impairment in the chimney test. Each experimental group consisted of 12 animals. The grip-strength test results were analyzed using a one-way ANOVA with Dunnett’s post hoc test, while the data from the chimney test were statistically evaluated using Fisher’s exact probability test. *p<0.05 vs. control group.
Table S3. Effect of acute and 14-day treatment with SSR504734 on neuromuscular strength and motor coordination in mice
In acute studies, SSR504734 and sodium valproate (VPA; positive control) were injected i.p.
60 and 15 min before the test, respectively. In subchronic studies, SSR504734 and VPA were injected i.p. every 24 h for 14 days. The last administration was made 60 and 15 min before the tests, respectively. Control animals received saline. Each experimental group consisted of 12 animals. The grip-strength test results were analyzed using a one-way ANOVA with […]
Fisher’s exact probability test.

[2] = tested on: inflammatory markers in liver homogenates; assay: Inflammatory markers in liver (ELISA); type: in vivo, mice; details: 14-day administration, 30 mg/kg i.p.
Description: Samples of liver tissue were homogenized with a protease inhibitor solution (0.4 M NaCl, 0.05% Tween 20, 0.5% bovine serum albumin, 0.1 mM phenylmethylsulfonylfluoride, 0.1 mM benzethonium chloride, 10 mM EDTA, and 10 μg/mL aprotinin). Homogenates were centrifuged at 12,000 rpm at 4 °C, and supernatant fluids were collected and stored at −80 °C until analysis. The entire procedure was described by Zhao et al.[29]
ELISA kits were used to determine IL-1-β, IL-6, IL-10, TNF-α, and IFN-γ (EIAAB Science INC, Wuhan, Hubei, China, nos. E0563m, E0079m, E0056m, E0049m, E0133m, E0753m) and IL-18 (Biorbyt Ltd., Cambridge, United Kingdom, no. orb437211) in the liver homogenates and serum. All assays were performed according to the producer’s instructions. All samples were tested in triplicate.

rat GlyT1 = biological target: T1, rat GlyT1 (Rattus norvegicus, UniProt P28572); assay: GlyT1 radioligand binding ([3H]glycine, rat brain cortex, Eurofins Panlabs)
T1 construct: tissue Eurofins Panlabs Discovery Services Taiwan, Ltd. (ran the assay); host or cells: Wistar rat brain cortex
T1 sequence (P28572 1-638): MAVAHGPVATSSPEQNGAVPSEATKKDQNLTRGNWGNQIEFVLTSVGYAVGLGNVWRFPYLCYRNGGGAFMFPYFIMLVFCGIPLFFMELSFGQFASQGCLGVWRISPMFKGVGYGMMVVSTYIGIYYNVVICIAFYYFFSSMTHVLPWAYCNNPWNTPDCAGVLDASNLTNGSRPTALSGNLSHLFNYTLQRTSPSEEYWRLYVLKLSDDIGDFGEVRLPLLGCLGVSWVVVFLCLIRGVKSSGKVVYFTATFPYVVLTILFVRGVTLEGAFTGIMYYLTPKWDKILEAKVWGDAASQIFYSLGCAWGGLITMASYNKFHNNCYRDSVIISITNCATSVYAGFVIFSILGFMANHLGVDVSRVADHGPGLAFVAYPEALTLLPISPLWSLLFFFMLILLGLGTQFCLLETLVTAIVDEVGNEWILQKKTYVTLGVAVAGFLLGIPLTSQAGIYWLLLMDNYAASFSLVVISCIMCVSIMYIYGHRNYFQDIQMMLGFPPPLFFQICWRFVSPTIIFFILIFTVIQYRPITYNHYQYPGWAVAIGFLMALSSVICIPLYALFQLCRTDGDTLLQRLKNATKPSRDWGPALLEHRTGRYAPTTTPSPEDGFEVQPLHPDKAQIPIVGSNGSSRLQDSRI

[3] = tested on: neuroblastoma SH-SY5Y cells; assay: Neurotoxicity, SH-SY5Y cell viability; type: cell-based
Description: A series of in vitro ADME-Tox tests were performed for SSR504734 in order to estimate its drugability. The ADME-Tox parameters including permeability, plasma protein binding, metabolic stability, neurotoxicity, and hepatotoxicity were carried out as described previously.[31],[32] The ability of SSR504734 to penetrate through the biological membrane by passive diffusion was estimated by the Gentest Precoated PAMPA Plate System (Corning, Tewksbury, MA) and expressed as the permeability coefficient (Pe). The protein binding analysis was performed by using the commercial TRANSIL^XL PPB test, which mimics in vitro physiological plasma conditions where human serum albumin (HAS) and alpha-1-acid glycoprotein AGP are present in a 24:1 ratio. The human metabolism of SSR504734 was studied using human liver microsomes (HLMs) provided by Sigma-Aldrich. The hepatotoxicity and neurotoxicity were estimated in cellular models with the use of hepatoma HepG2 and neuroblastoma SH-SY5Y cell lines to perform the preliminary safety tests. The cells were incubated with SSR504734 at the concentration range of 0.1–100 μM. 1 μM cytostatic drug doxorubicin (DX) was used as the reference.
Figure 8 Effect of cytostatic drug doxorubicin (DX) and SSR504734 on (A) hepatoma HepG2 and (B) neuroblastoma SH-SY5Y cell lines viability after 72 h of incubation at 37 °C, 5% CO2. Data are expressed as means ± SD. Statistical analysis: ****p < 0.0001 vs negative control −1% DMSO in growth media (one-way ANOVA, followed by Dunnett’s post hoc test).
Figure S8. The effect of cytostatic drug doxorubicin and SSR504734 on (A) hepatoma
HepG2 and (B) neuroblastoma SH-SY5Y cell line viability after 72 h of incubation at 37 °C,
5% CO2. The IC50 values were calculated by GraphPad Prism 8.0.
(1 picture or pasted object on this page, not shown here)

[4] = tested on: tonic hindlimb extension in the MEST test in rats; details: cited from earlier work
[5] = read-out: % inhibition of control specific binding

O=C(NC(c1ccccc1)C1CCCCN1)c1cccc(C(F)(F)F)c1Cl [SSR504734, 2-chloro-N-[(S)-phenyl[(2S)-piperidin-2-yl]methyl]-3-trifluoromethyl benzamide monohydrochloride]
Impairment of motor coordination ([1]; 30 mg/kg i.p., 15 min): 0% | Impairment of motor coordination ([1]; 30 mg/kg i.p., 30 min): 0% | Impairment of motor coordination ([1]; 30 mg/kg i.p., 60 min): 0% | Impairment of motor coordination ([1]; 30 mg/kg i.p., 120 min): 8.33% | Impairment of motor coordination ([1]; 30 mg/kg i.p., 240 min): 0% | Impairment of motor coordination ([1]; 14-day treatment, 3 mg/kg i.p.): 0% | Impairment of motor coordination ([1]; 14-day treatment, 10 mg/kg i.p.): 0% | Impairment of motor coordination ([1]; 14-day treatment, 30 mg/kg i.p.): 0% | Impairment of motor coordination ([1]; acute treatment, 10 mg/kg i.p.): 0% | Impairment of motor coordination ([1]; acute treatment, 30 mg/kg i.p.): 0% | Impairment of motor coordination ([1]; acute treatment, 50 mg/kg i.p., 50 mg/kg): 33.3% and ~33% | level of inflammatory markers in liver samples [2]: No statistically significant changes | % inhibition of control specific binding (rat GlyT1; 0.1 μM, rat brain cortex): moderate interaction | inhibition at 0.1 µM (rat GlyT1; [5]): 42% | inhibition at 20 µM (rat GlyT1; [5]): 52% | inhibition at 100 µM (rat GlyT1; [5]): 62% | completely safe dose in the SH-SY5Y model ([3]; 72 h): 25 µM | IC50 ([3]; Homo sapiens, SH-SY5Y, 72 h of incubation): 38.1 µM | effect on threshold for tonic hindlimb extension [4]: strong, dose-dependent increase
